Source: patent US20230293535A1, “ERBB/BTK INHIBITORS” (Dizal (Jiangsu) Pharmaceutical Co., Ltd., priority 2018, published 2023)
Marks after values point to notes of the source that are not given here.

Columns and labels:
[1] = target: T1, EGFR L858R&T790M (Homo sapiens, UniProt P00533, L858R/T790M); assay: EGFR L858R and T790M cellular phosphorylation inhibition in NCI-H1975 (MSD); format: cell-based; settings: NCI-H1975 cells, 4 h compound, p-EGFR(Y1068)/total EGFR; read-out: EGFR L858R and T790M mutation IC50;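 also: phosphorylated and total EGFR detected by electrochemiluminescence, cells exposed to compound in medium containing 1% FBS at 37 °C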
T1 construct: host or cells: NCI-H1975
T1 sequence (P00533 25-1210 T790M/L858R): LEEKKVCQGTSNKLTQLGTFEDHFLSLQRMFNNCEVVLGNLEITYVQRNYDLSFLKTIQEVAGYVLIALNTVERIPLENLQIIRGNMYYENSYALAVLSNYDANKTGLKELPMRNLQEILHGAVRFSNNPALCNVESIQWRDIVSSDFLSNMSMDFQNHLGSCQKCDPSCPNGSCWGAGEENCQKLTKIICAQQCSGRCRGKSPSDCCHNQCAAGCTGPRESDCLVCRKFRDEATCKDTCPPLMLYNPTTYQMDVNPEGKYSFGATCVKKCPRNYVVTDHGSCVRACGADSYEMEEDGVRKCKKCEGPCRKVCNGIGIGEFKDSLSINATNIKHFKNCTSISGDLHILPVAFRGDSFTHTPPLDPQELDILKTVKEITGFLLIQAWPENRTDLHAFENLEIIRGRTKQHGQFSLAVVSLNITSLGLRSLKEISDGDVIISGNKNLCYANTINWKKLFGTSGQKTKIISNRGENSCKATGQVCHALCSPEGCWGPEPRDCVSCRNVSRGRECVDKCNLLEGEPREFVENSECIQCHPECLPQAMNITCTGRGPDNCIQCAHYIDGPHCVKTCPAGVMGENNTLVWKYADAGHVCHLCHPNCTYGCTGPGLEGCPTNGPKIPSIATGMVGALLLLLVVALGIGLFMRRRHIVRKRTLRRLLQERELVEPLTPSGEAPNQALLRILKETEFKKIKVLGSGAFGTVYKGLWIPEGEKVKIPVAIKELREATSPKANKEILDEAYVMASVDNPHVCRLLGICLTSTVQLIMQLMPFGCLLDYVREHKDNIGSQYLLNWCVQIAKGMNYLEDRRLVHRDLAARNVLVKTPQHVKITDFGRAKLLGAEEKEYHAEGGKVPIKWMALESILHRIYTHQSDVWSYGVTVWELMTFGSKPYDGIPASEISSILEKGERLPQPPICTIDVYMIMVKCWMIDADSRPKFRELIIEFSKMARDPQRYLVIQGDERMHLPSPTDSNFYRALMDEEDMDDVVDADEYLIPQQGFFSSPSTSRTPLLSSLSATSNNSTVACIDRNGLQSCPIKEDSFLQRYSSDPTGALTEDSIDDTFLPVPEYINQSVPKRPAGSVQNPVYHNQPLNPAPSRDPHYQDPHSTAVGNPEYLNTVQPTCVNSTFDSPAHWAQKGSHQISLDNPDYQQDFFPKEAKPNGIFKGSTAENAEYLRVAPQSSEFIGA

[2] = system: NCI-H1975 EGFR L858R/T790M cells; assay: Cell proliferation, NCI-H1975 EGFR L858R/T790M (CellTiter-Glo, 72 h); format: cell-based; settings: Homo sapiens, NCI-H1975, 72 h, NCI-H1975, 72 h proliferation; read-out: EGFR L858R and T790M mutation GI50;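 also: viable cells quantified by luciferase-based ATP luminescence, proliferation expressed relative to DMSO-treated wells (100%) after subtracting a parallel plate read at the time of dosing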
[3] = system: WT EGFR cell line A-431; assay: Cell proliferation, WT EGFR A431 (CellTiter-Glo, 72 h); format: cell-based; settings: Homo sapiens, A-431, 72 h, A431, 72 h proliferation; read-out: EGFR WT A431 GI50;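 also: proliferation from a luminescent ATP viability signal, expressed as 100 × (treated minus time-zero plate) over (DMSO control minus time-zero plate), cells grown with 10% FBS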
[4] = system: OCI-LY-10 cells; assay: BTK (wt) cell proliferation, OCI-LY-10 (CellTiter-Glo, 72 h); format: cell-based; settings: Homo sapiens, OCI-Ly10, 72 h, OCI-LY-10 cells, 72 h, CellTiter-Glo; read-out: BTK WT OCI-LY-10 GI50;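 also: viable cells quantified via cellular ATP luminescence, proliferation given as percent of DMSO control after subtracting a duplicate plate read at time of dosing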
Method: (§1) OCI-LY-10 at 3,750 cells/well, TMD-8 and Ri-1 at 2,000 cells/well, and DB at 1,250 cells/well, respectively, were sorted into 384-well plates in RPMI1640 medium with 10% FBS. After overnight incubation, all cells were incubated with compound at a series of concentrations. Meanwhile, a duplicated plate of each cell line was prepared for measuring G0 value. The dosed plates were further incubated for 72 hours and the number of viable cells was measured by CellTiter-Glo® Luminescent Cell Viability Assay (Promega), a luminescent method for determining the number of viable cells through measurement of cellular ATP concentration using Envision plate reader (PerkinElmer). The percentage of proliferation was calculated as: % Proliferation = 100 × (G3 value of sample well - G0 value)/(G3 value of DMSO control - G0 value).

[5] = system: TMD-8 cells; assay: BTK (wt) cell proliferation, TMD-8 (CellTiter-Glo, 72 h); format: cell-based; settings: Homo sapiens, TMD8, 72 h, TMD-8 cells, 72 h, CellTiter-Glo; read-out: BTK WT TMD-8 GI50;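 also: viable cells quantified by ATP-based luminescence, proliferation expressed as percent of DMSO control after subtracting a time-zero baseline plate read at dosing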
[6] = system: Ri-1 cells; assay: BTK (wt) cell proliferation, Ri-1 (CellTiter-Glo, 72 h); format: cell-based; settings: Ri-1, 72 h, Ri-1 cells, 72 h, CellTiter-Glo; read-out: BTK WT Ri-1 GI50;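 also: viable cells quantified as cellular ATP luminescence, proliferation normalized to a time-zero plate and the DMSO control, compounds tested across a dilution series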
Method: as §1

[7] = system: DB cells; assay: BTK (wt) cell proliferation, DB (CellTiter-Glo, 72 h); format: cell-based; settings: Homo sapiens, DB, DB cells, CellTiter-Glo, read-out: Non-BCR activated DB GI50;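 also: DB cells in 384-well plates given a dilution series of compound, viable cells read by ATP luminescence, growth expressed versus DMSO control after subtracting a time-zero plate reading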
[8] = target: T2, BTK (Homo sapiens, UniProt Q06187); assay: BTK target site occupancy ELISA (PBMC); format: cell-based; settings: BTK receptor occupancy
T2 sequence (Q06187 whole entry): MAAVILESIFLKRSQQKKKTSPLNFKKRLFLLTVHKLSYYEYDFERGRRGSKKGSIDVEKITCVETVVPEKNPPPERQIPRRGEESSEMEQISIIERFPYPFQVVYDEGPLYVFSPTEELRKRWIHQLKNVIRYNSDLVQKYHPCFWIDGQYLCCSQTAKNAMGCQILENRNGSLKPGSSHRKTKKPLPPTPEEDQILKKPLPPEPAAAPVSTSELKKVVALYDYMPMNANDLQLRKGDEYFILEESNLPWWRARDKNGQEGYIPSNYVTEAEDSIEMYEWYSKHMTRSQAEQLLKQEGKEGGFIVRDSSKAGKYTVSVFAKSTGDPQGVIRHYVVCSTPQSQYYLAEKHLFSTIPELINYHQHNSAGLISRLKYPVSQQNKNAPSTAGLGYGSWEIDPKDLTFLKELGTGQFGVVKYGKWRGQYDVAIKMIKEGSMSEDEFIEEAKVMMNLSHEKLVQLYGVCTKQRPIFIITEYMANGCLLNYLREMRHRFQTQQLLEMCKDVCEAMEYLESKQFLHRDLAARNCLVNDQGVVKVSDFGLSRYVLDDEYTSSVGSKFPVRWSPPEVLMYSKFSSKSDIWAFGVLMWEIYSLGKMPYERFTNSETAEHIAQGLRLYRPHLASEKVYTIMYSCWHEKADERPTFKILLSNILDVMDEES
Method: (§2) An enzyme-linked immunosorbent assay (ELISA) method for the detection of free uninhibited Btk in mouse and human lysates. Human or mouse whole blood were incubated with compound for 2 hour at 37° C. Whole blood were lysed in ice-cold lysis buffer containing 50 mM Tris-HCl, pH 7.5, 150 mM NaCl, 1 mM EDTA,1% Triton X-100. […] Samples were transferred to a streptavidin-coated 96-well ELISA plate and mixed while shaking for 1 hour at room temperature. The α-Btk antibody (1:500; clone number D3H5, Cell signaling Technology, Danvers, MA, USA) was then added to the well and incubated for 1 hour at room temperature. After wash, goat α-rabbit-FW (1:5000 dilution in PBS+ 0.05% Tween-20 + 1% BSA) was added to each well and incubated for 1 h at room temperature. The ELISA was developed with addition of tetramethyl benzidine (TMB) followed by Stop Solution and read at OD 450 nm.

[9] = Rat pharmacokinetic study after oral administration (SOA); format: in vivo; settings: male Han Wistar rats
Method: For rat pharmacokinetic studies, six male Han Wistar rats were purchased from Beijing Vital River and orally dosed with the test compound at 10 mg/kg in 0.5% Tween-80 and 0.5% hydroxypropyl methylcellulose (v/w). At, 0.5, 1, 2, 4, 7 and 16 hours post-dose, blood samples (>100 µL/time point) were collected from portal vein and via cardiac puncture into separate K2EDTA […] tubes, and then immediately centrifuged at 1500 g, 5 min at 4° C. to separate plasma. The plasma samples were deproteinized with 4 fold acetonitrile (including internal standard), vortex for 10 min and centrifuges for 10 minutes at 4000 g at 4° C.. The supernatantswere submitted to LC/MS/MS (API 5500, Applied Biosystems, Foster City) analysis. Two sets of standard curves were run at the beginning and end of each batch from plasma sample analysis.
Compound absorption was measured by portal vein AUC (AUCHPV) and systemic AUC (AUCSYS) observed maximum concentration (Cmax) in rats after oral administration. Dose is the actual dose used in SOA study. Find below in Table 9 data for exemplary tested compounds.

[10] = system: NSCLC with EGFR Exon20ins; assay: Anti-tumor activity in platinum-pretreated NSCLC patients with EGFR Exon20 insertion mutations; format: in vivo, human
Excerpt: Compound 52 is a rationally designed, oral, EGFR Exon20 insertion (Exon20ins) inhibitor, with wild-type EGFR selectivity. […] Compound 52 is currently in late stage development with multiple pivotal studies ongoing globally as ≥ 2nd line treatment after platinum-containing chemotherapies and 1st line for treatment naive patients. Results from multicenter, multi-arm, global studies are presented herein.
A total of 119 evaluable platinum-pretreated NSCLC patients with EGFR Exon20ins were included in efficacy set.

[11] = system: NSCLC with EGFR sensitizing, double or uncommon mutation; assay: Anti-tumor activity in NSCLC patients with EGFR mutation beyond Exon20ins; format: in vivo, human; settings: 50-400 mg once daily oral
Method: Compound 52 was explored at 50 mg, 100 mg, 200 mg, 300 mg and 400 mg once daily with oral administration in 12 non-small cell lung cancer (NSCLC) patients with EGFR sensitizing mutation (L858R or 19del), sensitizing (L858R or 19del) and T790M double mutation (double mutation) or less common non-resistant mutation (uncommon mutation, including Gly719Xaa, Leu861Gln, or Ser768Ile mutation). […] In 2 patients with uncommon mutation, 1 SD and 1 PD was observed after Compound 52 treatment.

[12] = system: NSCLC with EGFR Exon20ins; assay: Anti-tumor activity in platinum-pretreated NSCLC patients with EGFR Exon20 insertion mutations; format: in vivo, human; remark: listed apart in the source
[13] = target: T2, BTK; assay: BTK target site occupancy ELISA (Ramos); format: cell-based; parameters: endogenous in cells; host or cells: Ramos; settings: BTK receptor occupancy, read-out: Occupancy (Romas) IC50
Method: as §2

[14] = In vitro human hepatocytes clearance assay; settings: both, human, cryopreserved human hepatocytes (suspension), human hepatocytes Clint (µL/min/10^6cells), mixed gender human hepatocytes, incubation up to 100 min
[15] = 50 mg (N = 3), post platinum-based chemotherapy
[16] = 100 mg (N = 2), post platinum-based chemotherapy
[17] = 200 mg (N = 21), post platinum-based chemotherapy
[18] = 300 mg (N = 84), post platinum-based chemotherapy
[19] = 400 mg (N = 9), post platinum-based chemotherapy
[20] = Total (N = 119), post platinum-based chemotherapy
[21] = 2 patients with uncommon mutation
[22] = 4 NSCLC patients with EGFR sensitizing mutation
[23] = 5 NSCLC patients with EGFR double mutation

C=CC(=O)Nc1cc(Nc2nccc(Nc3cc(Cl)c(F)cc3C(C)(C)O)n2)c(OC)cc1N1CC[C@@H](N(C)C)C1 [Compound 52, (R)-N-(5-(4-(5-chloro-4-fluoro-2-(2-hydroxypropan-2-yl)phenylamino)pyrimidin-2-ylamino)-2-(3-(dimethylamino)pyrrolidin-1-yl)-4-methoxyphenyl)a crylamide]
IC50 [1]: 1.1 nM
GI50 [2]: 3.3 nM
GI50 [3]: 47.1 nM
GI50 [4]: 3.2 nM
GI50 [5]: 5.8 nM
GI50 [6]: 51.3 nM
GI50 [7]: 1980 nM
IC50 [8]: 2.9 nM
SOA DN AUCSYS (ng·h/mL)/(mg/kg) ([9]; dose-normalised systemic AUC): 103 (ng·h/mL)/(mg/kg)
Cmax ([9]; rat, plasma, nominal 10 mg/kg (actual dose in c1)): 99 ng/mL
Best Objective Response Rate, PD (progressive disease) [10, 15]: 1 (33.3) n(%)
Best Objective Response Rate, PR [10, 15]: 0 (0.0) n(%)
Best Objective Response Rate, PR, confirmed [10, 15]: 0 (0.0) n(%)
Best Objective Response Rate, PR, pending confirmation [10, 15]: 0 (0.0) n(%)
Best Objective Response Rate, SD (stable disease) [10, 15]: 2 (66.7) n(%)
Best Objective Response Rate, PD (progressive disease) [10, 16]: 0 (0.0) n(%)
Best Objective Response Rate, PR [10, 16]: 1 (50.0) n(%)
Best Objective Response Rate, PR, confirmed [10, 16]: 1 (50.0) n(%)
Best Objective Response Rate, PR, pending confirmation [10, 16]: 0 (0.0) n(%)
Best Objective Response Rate, SD (stable disease) [10, 16]: 1 (50.0) n(%)
Best Objective Response Rate, PD (progressive disease) [10, 17]: 3 (14.3) n(%)
Best Objective Response Rate, PR [10, 17]: 10 (47.6) n(%)
Best Objective Response Rate, PR, confirmed [10, 17]: 7 (33.3) n(%)
Best Objective Response Rate, PR, pending confirmation [10, 17]: 2 (9.5)* n(%)
Best Objective Response Rate, SD (stable disease) [10, 17]: 9 (42.9) n(%)
Best Objective Response Rate, PD (progressive disease) [10, 18]: 9 (10.7) n(%)
Best Objective Response Rate, PR, confirmed [10, 18]: 32 (38.1) n(%)
Best Objective Response Rate, PR, pending confirmation [10, 18]: 8 (9.5)* n(%)
Best Objective Response Rate, SD (stable disease) [10, 18]: 35 (41.7) n(%)
best Overall Response Rate (ORR) ([10]; 300 mg once daily, 44/84 patients, post platinum-based chemotherapy): 52.4%
Best Objective Response Rate, PD (progressive disease) [10, 19]: 2 (22.2) n(%)
Best Objective Response Rate, PR [10, 19]: 2 (22.2) n(%)
Best Objective Response Rate, PR, confirmed [10, 19]: 2 (22.2) n(%)
Best Objective Response Rate, PR, pending confirmation [10, 19]: 0 (0.0) n(%)
Best Objective Response Rate, SD (stable disease) [10, 19]: 5 (55.6) n(%)
Best Objective Response Rate, PD (progressive disease) [10, 20]: 15 (12.6) n(%)
Best Objective Response Rate, PR [10, 20]: 57 (47.9) n(%)
Best Objective Response Rate, PR, confirmed [10, 20]: 42 (35.3) n(%)
Best Objective Response Rate, PR, pending confirmation [10, 20]: 10 (8.4)* n(%)
Best Objective Response Rate, SD (stable disease) [10, 20]: 52 (43.7) n(%)
ORR for patients with baseline brain metastasis ([10]; across studies, 11/25 patients): 44%
first response observed after treatment ([10]; single patient, stage IV NSCLC with CNS metastasis, 300 mg once daily): 6 weeks
patients with PD [11, 21]: 1
patients with SD [11, 21]: 1
patients with PD [11, 22]: 1
patients with SD [11, 22]: 2
patients with best response of PR [11, 22]: 1
patients with best response of partial response (PR) [11, 23]: 2
patients with progressive disease (PD) [11, 23]: 2
anti-tumor activity in earlier clinical studies [12]: Significant anti-tumor activities
IC50 [13]: 0.6 nM
hepatocyte CLint at 1 µM [14]: 3.29 µL/min/1e6 cells
